Tests used:
[1] = test system: Jurkat T cells (PMA and ionomycin-induced gene expression); test: mRNA sequencing of activated Jurkat T cells; assay type: cell-based, human; conditions: P+I 8 h
Protocol: We then extracted RNA from these cells. Construction of the cDNA library and next-generation sequencing was performed at LAS (Gimpo, Korea). We sequenced all samples on an Illumina NextSeq 500 system with 75 paired-end reads. For the RNA sequencing analysis, reads for each sample were aligned to the human genome (GRCh37/hg19 genome assembly) using STAR 2.4.0.1[25] with default settings. We used HOMER tools to quantify and normalize the defined genes in RefSeq transcripts. FPKM normalized genes were hierarchically clustered using Cluster3.0[26]. We visualized refined data with Java Treeview (http://jtreeview.sourceforge.net). We conducted gene ontology analysis of each cluster using the DAVID web tool (https://david.ncifcrf.gov). Finally, we visualized the expression levels of target genes using the Integrative Genomics Viewer (http://software.broadinstitute.org/software/igv). The raw data were submitted to the NCBI Gene Expression Omnibus under accession number GSE185561.
Fig. 3 The CABIN1 peptide inhibits T-cell activation. a Heatmap of altered genes affected by FK506 treatment or CABIN1 peptide expression upon T-cell activation. b Gene Ontology analysis of cluster III. c mRNA expression levels of genes included in cluster III. d qRT-PCR data of genes in c. The experiment was independently repeated at least three times, and the data are presented as the mean ± standard deviation. Statistical differences were determined using two-tailed Student’s t-test. *p < 0.05, **p < 0.01, ***p < 0.001, NC negative control.

[2] = test system: Jurkat T cells (T-cell activation gene mRNA); test: Real-time quantitative PCR of activated Jurkat T cells; assay type: cell-based; conditions: PMA and ionomycin, Supplementary Fig. 5a, b
From the text: We collected Jurkat T cells with QIAzol Lysis Reagent (Qiagen) to extract total RNA. We reverse transcribed cDNAs from isolated RNA using AMV Reverse Transcriptase and random hexamers. We performed real-time quantitative PCR for each cDNA using TB Green® Premix Ex Taq™ (TaKaRa, Kusatsu, Japan) on a CFX Connect Real-time PCR Detection System (Bio-Rad, Hercules, CA, USA) and normalized the expression to that of 18 S rRNA or GAPDH.

Question: Which results are given for `C=CC[C@@H]1/C=C(\C)C[C@H](C)C[C@H](OC)[C@H]2O[C@@](O)(C(=O)C(=O)N3CCCC[C@H]3C(=O)O[C@H](/C(C)=C/[C@@H]3CC[C@@H](O)[C@H](OC)C3)[C@H](C)[C@@H](O)CC1=O)[C@H](C)C[C@@H]2OC` [FK506, reference compound]?
Answer: TDRD9 expression ([1]; NC 1.428, NC_P+I 25.902): 1.245 FPKM; LOC729603 expression ([1]; NC 1.468, NC_P+I 5.071): 2.179 FPKM; PDGFA expression ([1]; NC 1.497, NC_P+I 26.809): 3.25 FPKM; PHACTR2 expression ([1]; NC 1.659, NC_P+I 9.467): 2.927 FPKM; CABP1 expression ([1]; NC 1.702, NC_P+I 5.834): 1.201 FPKM; POU2AF1 expression ([1]; NC 1.84, NC_P+I 36.298): 2.274 FPKM; SPRY1 expression ([1]; NC 2.079, NC_P+I 12.391): 4.074 FPKM; GFOD1 expression ([1]; NC 2.283, NC_P+I 12.861): 4.187 FPKM; DSTYK expression ([1]; NC 2.356, NC_P+I 7.198): 3.501 FPKM; FMNL2 expression ([1]; NC 2.395, NC_P+I 6.813): 2.726 FPKM; ADORA2A expression ([1]; NC 2.492, NC_P+I 11.633): 0.998 FPKM; CD27 expression ([1]; NC 2.525, NC_P+I 27.462): 3.098 FPKM; TNFRSF4 expression ([1]; NC 2.597, NC_P+I 31.683): 2.933 FPKM; REL expression ([1]; NC 2.654, NC_P+I 20.219): 4.749 FPKM; JAK2 expression ([1]; NC 2.788, NC_P+I 26.566): 5.248 FPKM; LRRC8B expression ([1]; NC 2.89, NC_P+I 28.699): 3.555 FPKM; NPDC1 expression ([1]; NC 3.008, NC_P+I 8.759): 4.328 FPKM; CD27-AS1 expression ([1]; NC 3.088, NC_P+I 14.958): 5.11 FPKM; CST7 expression ([1]; NC 3.315, NC_P+I 14.15): 2.338 FPKM; TAGAP expression ([1]; NC 3.351, NC_P+I 128.498): 4.352 FPKM; CD55 expression ([1]; NC 3.587, NC_P+I 39.451): 6.015 FPKM; GTDC1 expression ([1]; NC 3.595, NC_P+I 10.378): 4.629 FPKM; KCNK5 expression ([1]; NC 3.84, NC_P+I 14.865): 3.906 FPKM; MYO1D expression ([1]; NC 4.114, NC_P+I 11.118): 4.59 FPKM; RDH10 expression ([1]; NC 4.125, NC_P+I 19.889): 5.856 FPKM; COL27A1 expression ([1]; NC 4.149, NC_P+I 17.216): 4.463 FPKM; PLK3 expression ([1]; NC 4.432, NC_P+I 14.807): 5.257 FPKM; NFATC1 expression ([1]; NC 4.511, NC_P+I 15.287): 3.793 FPKM; ASAP1 expression ([1]; NC 4.678, NC_P+I 18.37): 7.765 FPKM; GRK5 expression ([1]; NC 5.451, NC_P+I 21.464): 8.481 FPKM; CCDC64 expression ([1]; NC 5.477, NC_P+I 33.545): 10.044 FPKM; ATG14 expression ([1]; NC 5.727, NC_P+I 30.239): 7.863 FPKM; PELI1 expression ([1]; NC 5.755, NC_P+I 16.085): 8.175 FPKM; ARHGEF3 expression ([1]; NC 6.146, NC_P+I 31.337): 8.637 FPKM; PKIA expression ([1]; NC 6.444, NC_P+I 49.019): 13.962 FPKM; LTBP4 expression ([1]; NC 7.304, NC_P+I 33.466): 8.427 FPKM; LAMP3 expression ([1]; NC 8.064, NC_P+I 31.61): 6.412 FPKM; LAX1 expression ([1]; NC 8.344, NC_P+I 24): 8.052 FPKM; PTPN22 expression ([1]; NC 8.928, NC_P+I 45.38): 6.37 FPKM; VAMP1 expression ([1]; NC 9.566, NC_P+I 50.97): 14.793 FPKM; NINJ1 expression ([1]; NC 10.319, NC_P+I 76.622): 11.769 FPKM; KCNK1 expression ([1]; NC 10.828, NC_P+I 36.893): 10.967 FPKM; CD97 expression ([1]; NC 10.97, NC_P+I 49.481): 19.394 FPKM; FBXO34 expression ([1]; NC 11.735, NC_P+I 48.015): 14.612 FPKM; TBC1D20 expression ([1]; NC 11.844, NC_P+I 35.808): 17.7 FPKM; MIR6775 expression ([1]; NC 12.409, NC_P+I 50.527): 19.643 FPKM; AGK expression ([1]; NC 14.395, NC_P+I 39.056): 14.029 FPKM; FYN expression ([1]; NC 14.671, NC_P+I 58.084): 16.523 FPKM; MIR6821 expression ([1]; NC 17.553, NC_P+I 62.894): 13.626 FPKM; NDFIP1 expression ([1]; NC 19.638, NC_P+I 54.615): 22.485 FPKM; TBC1D4 expression ([1]; NC 20.739, NC_P+I 73.749): 12.549 FPKM; MAP2K3 expression ([1]; NC 21.676, NC_P+I 144.057): 41.815 FPKM; PTPN6 expression ([1]; NC 22.163, NC_P+I 77.092): 20.906 FPKM; FXYD5 expression ([1]; NC 25.643, NC_P+I 101.352): 41.346 FPKM; BCL2L1 expression ([1]; NC 31.375, NC_P+I 113.956): 39.402 FPKM; ATP6V1B2 expression ([1]; NC 33.172, NC_P+I 129.395): 50.672 FPKM; PIM3 expression ([1]; NC 37.434, NC_P+I 180.382): 42.827 FPKM; PPIF expression ([1]; NC 58.328, NC_P+I 188.301): 50.291 FPKM; NINJ1 and ZP4 expression upon T-cell activation [2]: repressed

From PMC9166766 (Experimental & Molecular Medicine, 2022)
